Experiment: Post-CABG Trial: lipid response to lovastatin therapy (baseline vs post-treatment lipid levels)
Assay type: in vivo, human
Protocol: As described herein, the inventors asked whether LPL haplotypes influence response to lipid-lowering therapy. They studied 830 subjects from the Post-Coronary Artery Bypass Graft trial, in which subjects with at least one patent saphenous vein graft were treated moderately or aggressively with lovastatin. A lipid profile was obtained at baseline and 4-5 years after treatment. 12 SNPs spanning the 3′ end of LPL were genotyped using the 5′-exonuclease (Taqman MBG) reaction. Haplotypes were constructed using the accelerated expectation maximization algorithm implemented in the program Haploview. Association with lipid response was evaluated using analysis of covariance (ANCOVA). Age, body mass index, race, current smoking status, time between CABG and study enrollment, and lovastatin treatment group were taken as covariates in the association analyses. […] Conversely, Haplotypes 6, 7, and 8 were each associated with increased HDL-C response to therapy compared to respective non-carriers. Haplotype 2 was associated with a smaller increment in triglycerides (Haplotype 2 carriers: +2.6% versus non-carriers: +11.8% change in triglycerides, P=0.02). These effects of LPL haplotypes on HDL-C and triglyceride response were independent of whether subjects were in the intensive or moderate treatment group. […] The most common haplotype, haplotype 1, was protective against graft worsening or occlusion. LPL may influence atherosclerosis risk through pleiotropic effects on each aspect of the metabolic syndrome.
This genetic association study is ancillary to the Post-Coronary Artery Bypass Graft Trial (Post-CABG Trial) (Taylor K D, Genet Med 2004, 6: 481-486; The Post Coronary Artery Bypass Graft Trial Investigators, N Engl J Med 1997, 336: 153-162). A total of 1351 subjects from seven clinical centers throughout North America were included in the clinical trial and all were eligible as participants in this genetic ancillary study. Inclusion and exclusion criteria have been previously described (The Post Coronary Artery Bypass Graft Trial Investigators, N Engl J Med 1997, 336: 153-162). Subjects were randomly assigned for treatment to lower LDL-cholesterol levels with lovastatin, aggressively (target LDL 1.55-2.20 mmol/L (60-85 mg/dL)), cholestryramine added to lovastatin if necessary to reach target) or moderately (target LDL 3.36-3.62 mmol/L (130-140 mg/dL)). For the genetic study, DNA was isolated from 903 subjects following standard protocols. Follow-up complete angiographic data, lipid values, and DNA were available from 891 of these individuals. Subjects in this genetic study were collected in the latter years of the larger Post-CABG trial.
All demographic, family history, medical history, and clinical data were collected as part of the Post-CABG Trial.14 The progression of atherosclerosis was quantitatively determined by comparison of an initial angiogram at enrollment with a follow-up angiogram repeated an average of 4.3 years later. Baseline and follow-up angiography were obtained with catheterization techniques that permitted computer-assisted quantitative measurement. An initially patent graft was defined as having progression of atherosclerosis if there was a decrease of 0.6 mm or more in lumen diameter at the site of greatest change at follow-up. Subjects with “progression of atherosclerosis” were defined as those subjects with one or more grafts showing progression. Graft occlusion was also assessed. Baseline and post-treatment lipid levels (total cholesterol, TC; LDL-cholesterol, LDL-C; HDL-cholesterol, HDL-C; and triglycerides, TG) were obtained.
The primary phenotypes analyzed for association with LPL haplotypes were: a) the progression of atherosclerosis, and b) lipid response to lovastatin therapy. Secondary analyses included association of the LPL haplotypes with baseline lipid and systolic and diastolic blood pressure (SBP and DBP) measurements. […]

[1] = 891 post-CABG subjects, mean ± SD (range)
[2] = aggressive treatment group (target LDL 60-85 mg/dL, cholestyramine added if necessary)
[3] = moderate treatment group (target LDL 130-140 mg/dL)

## CC[C@H](C)C(=O)O[C@H]1C[C@@H](C)C=C2C=C[C@H](C)[C@H](CC[C@@H]3C[C@@H](O)CC(=O)O3)[C@H]21 [lovastatin]
[1]
  HDL-C response: 13.8 ± 24.4 (−61.9-153.1) %
  LDL-C response: −25.7 ± 20.6 (−78.8-45.9) %
  Total cholesterol response: −15.3 ± 16.3 (−58.4-43.5) %
  Triglyceride response: 7.5 ± 53.0 (−81.6-330.2) %
Post-CABG trial, overall
  reduction in LDL-C: 26%
  reduction in total cholesterol (TC): 15%
[2]
  reduction in LDL-C: 37%
  reduction in total cholesterol (TC): 23%
Aggressive versus moderate treatment group
  Response in HDL-C and triglycerides (TG): did not differ between the two treatment groups
Carriers of LPL haplotype 12-1, mean ± SD
  Percent change in HDL-C: 12.6 ± 24.3 (568) %
Carriers of LPL haplotype 12-2
  change in triglycerides: +2.6%
Carriers of LPL haplotype 12-2, mean ± SD
  Percent change in HDL-C: 12.4 ± 24.5 (295) %
Carriers of LPL haplotype 12-3, mean ± SD
  Percent change in HDL-C: 14.2 ± 23.5 (262) %
Carriers of LPL haplotype 12-5, mean ± SD
  Percent change in HDL-C: 11.4 ± 25.6 (61) %
Carriers of LPL haplotype 12-6, mean ± SD
  Percent change in HDL-C: 24.8 ± 19.8 (52) %
Carriers of LPL haplotype 12-7, mean ± SD
  Percent change in HDL-C: 21.9 ± 24.1 (44) %
Carriers of LPL haplotype 12-8, mean ± SD
  Percent change in HDL-C: 23.0 ± 26.0 (43) %
[3]
  reduction in LDL-C: 14%
  reduction in total cholesterol (TC): 7%
non-carriers of LPL haplotype 12-1, mean ± SD
  Percent change in HDL-C: 15.2 ± 24.2 (261) %
non-carriers of LPL haplotype 12-2
  change in triglycerides: +11.8%
non-carriers of LPL haplotype 12-2, mean ± SD
  Percent change in HDL-C: 14.0 ± 24.2 (534) %
non-carriers of LPL haplotype 12-3, mean ± SD
  Percent change in HDL-C: 13.1 ± 24.7 (567) %
non-carriers of LPL haplotype 12-5, mean ± SD
  Percent change in HDL-C: 13.6 ± 24.2 (768) %
non-carriers of LPL haplotype 12-6, mean ± SD
  Percent change in HDL-C: 12.7 ± 24.4 (777) %
non-carriers of LPL haplotype 12-7, mean ± SD
  Percent change in HDL-C: 13.0 ± 24.3 (785) %
non-carriers of LPL haplotype 12-8, mean ± SD
  Percent change in HDL-C: 12.8 ± 24.4 (786) %
